≈ marks a conversion by molar mass, not a printed value.
Assays:
[1] = Therapeutic index, ratio of IC50 for human H9 cells to EC50 for HIV 3B; assay type: cell-based; conditions: read-out: TI
[2] = system: Human immunodeficiency virus 1; test: Antiviral activity against HIV1 3B infected in H9 cells assessed as inhibition of viral replication by p24 antigen ELISA; assay type: functional, organism-based; conditions: Human immunodeficiency virus 1, 3B, H9; read-out: EC50
[3] = Cytotoxicity against human H9 cells after 4 days by coulter counter; assay type: cell-based; conditions: human, H9 cells; read-out: TI
[4] = Cytotoxicity against human KB1 cells after 72 hrs by MTT assay; assay type: functional, cell-based; conditions: KB1, 72 h
[5] = Cytotoxicity against human KB-7d cells after 72 hrs by MTT assay; assay type: functional, cell-based; conditions: KB7D; for EC50: read-out: ED50 (the source's name)
KB [6] = test: Cytotoxicity against human etoposide-resistant KB cells after 72 hrs by MTT assay
KB [7] = test: Cytotoxicity against human KB cells after 72 hrs by MTT assay; assay type: functional, cell-based; conditions: for EC50: read-out: ED50 (the source's name)
PC-3 = test: Cytotoxicity against human PC3 cells after 3 days by sulforhodamine B assay; assay type: functional, cell-based; conditions: PC-3, 72 h
A549 = test: Cytotoxicity against human A549 cells after 3 days by sulforhodamine B assay; assay type: functional, cell-based; conditions: A549, 72 h
[8] = Cytotoxicity against human KBVIN cells after 3 days by sulforhodamine B assay; assay type: functional, cell-based; conditions: 72 h
KB [9] = test: Cytotoxicity against human KB cells after 3 days by sulforhodamine B assay; assay type: functional, cell-based; conditions: 72 h
A-431 = test: Cytotoxicity against human A431 cells after 3 days by sulforhodamine B assay; assay type: functional, cell-based; conditions: A-431, 72 h
1A9 = test: Cytotoxicity against human 1A9 cells after 3 days by sulforhodamine B assay; assay type: functional, cell-based; conditions: 1A9, 72 h
HCT-8 = test: Cytotoxicity against human HCT8 cells after 3 days by sulforhodamine B assay; assay type: functional, cell-based; conditions: HCT-8, 72 h
[10] = system: Human immunodeficiency virus 1; test: Antiviral activity against HIV1 infected in human H9 cells after 4 days by p24 antigen ELISA; assay type: functional, organism-based; conditions: Human immunodeficiency virus 1, H9, 96 h
[11] = Therapeutic index, ratio of IC50 for human H9 cells to EC50 for HIV1; assay type: cell-based; conditions: read-out: TI
[12] = Inhibition of tubulin polymerization

COC(=O)C[C@@H]1C(=O)CC[C@H](C)C(=O)O[C@@H]2[C@@H]3[C@@H](OC(C)=O)[C@@]45O[C@@]3(C)COC(=O)c3cnccc3[C@@H](C)[C@@H](O)C(=O)O[C@@H]([C@H](OC(C)=O)[C@H](OC(C)=O)[C@@]4(COC1=O)[C@@H]2OC(C)=O)[C@]5(C)O [TRIPTONINE B]
selectivity ratio [1]: > 1000

Cc1cc(=O)oc2c3c(ccc12)OC(C)(C)[C@H](OC(=O)C12CCC(C)(C(=O)O1)C2(C)C)[C@@H]3OC(=O)C12CCC(C)(C(=O)O1)C2(C)C (stereo not given in full)
EC50 [2]: 6 nM
selectivity ratio at 96 h [3]: > 39

COc1cc([C@@H]2c3cc4c(cc3[C@@H](Nc3ccc(F)cc3)[C@H]3COC(=O)[C@H]23)OCO4)cc(OC)c1O
IC50 [4]: 4000 nM
IC50 [5]: 8300 nM
IC50 (KB [6]): 7200 nM
IC50 (KB [7]): 670 nM

COc1cc([C@@H]2c3cc4c(cc3[C@@H](Nc3ccc(C(=O)N[C@@H](C)C(=O)OCc5ccccc5)cc3)[C@H]3COC(=O)[C@H]23)OCO4)cc(OC)c1O
EC50 [5]: 0.25 µg/mL
EC50 (KB [7]): 0.5 µg/mL

CCC1=C(O)c2c(oc(-c3cccc4ccccc34)cc2=O)C(CC)(CC)C1=O [2-(NAPHTHALEN-1-YL)-6,8,8-TRIETHYL DESMOSDUMOTIN B]
EC50 (PC-3): 0.2 µg/mL (≈ 0.515 µM)
EC50 (A549): 0.2 µg/mL (≈ 0.515 µM)
EC50 [8]: 0.2 µg/mL (≈ 0.515 µM)
EC50 (KB [9]): 0.2 µg/mL (≈ 0.515 µM)
EC50 (A-431): 0.2 µg/mL (≈ 0.515 µM)
EC50 (1A9): 0.2 µg/mL (≈ 0.515 µM)
EC50 (HCT-8): 0.2 µg/mL (≈ 0.515 µM)

Cc1c(CBr)c(=O)oc2c3c(ccc12)OC(C)(C)[C@H](OC(=O)C12CCC(C)(C(=O)O1)C2(C)C)[C@@H]3OC(=O)C12CCC(C)(C(=O)O1)C2(C)C (stereo not given in full)
selectivity ratio [1]: 186000
EC50 [2]: 0.11 nM

C=C(C)[C@@H]1CC[C@]2(C(=O)O)CC[C@]3(C)[C@H](CC[C@@H]4[C@@]5(C)CC[C@H](OC(=O)COCC(=O)O)C(C)(C)[C@@H]5CC[C@]43C)[C@@H]12
IC50 [10]: 11700 nM
selectivity ratio [11]: 1170

CC(=O)O[C@@H]1[C@H](OC(=O)CC(C)C)c2c(ccc3ccc(=O)oc23)OC1(C)C [SUKSDORFIN]
selectivity ratio [1]: 40
EC50 [2]: 1300 nM

COc1cc2ccc3c(c2oc1=O)[C@@H](OC(=O)C12CCC(C)(C(=O)O1)C2(C)C)[C@@H](OC(=O)C12CCC(C)(C(=O)O1)C2(C)C)C(C)(C)O3 (stereo not given in full)
EC50 [2]: 30 nM
selectivity ratio at 96 h [3]: > 15

COc1cc([C@@H]2c3cc4c(cc3[C@@H](NC3=CCC5(C=C3)OCCO5)[C@H]3COC(=O)[C@H]23)OCO4)cc(OC)c1O
IC50 [4]: 500 nM
IC50 [5]: 1000 nM
IC50 (KB [6]): 1600 nM
IC50 (KB [7]): 680 nM

COc1cc([C@@H]2c3cc4c(cc3[C@@H](Nc3ccc(NC(=O)c5cc([N+](=O)[O-])cn5C)cc3)[C@H]3COC(=O)[C@H]23)OCO4)cc(OC)c1O
EC50 [5]: 200 nM
EC50 (KB [7]): 40 nM

Cc1cn([C@H]2C[C@H](N=[N+]=[N-])[C@@H](CO)O2)c(=O)[nH]c1=O [ZIDOVUDINE]
EC50 [2]: 44 nM

COc1cc2c(c3oc(=O)ccc13)[C@@H](OC(=O)C13CCC(C)(C(=O)O1)C3(C)C)[C@@H](OC(=O)C13CCC(C)(C(=O)O1)C3(C)C)C(C)(C)O2 (stereo not given in full)
EC50 [2]: 44 nM
selectivity ratio at 96 h [3]: > 15

CC(C)=CCC/C(C)=C/CC[C@@]1(C)C=Cc2c(cc(C)c(C(=O)O)c2O)O1 [DAURICHROMENIC ACID]
selectivity ratio [1]: 3710
EC50 [2]: 15 nM

C[C@H]1O[C@H](O[C@H]2CC[C@]3(C=O)[C@H]4CC[C@]5(C)[C@@H](c6ccc(=O)oc6)CC[C@]5(O)[C@@H]4CC[C@]3(O)C2)[C@H](O)[C@@H](O)[C@@H]1O [KALANCHOSIDE A]
IC50 (PC-3): 0.002 µg/mL (≈ 0.00355 µM)
IC50 (A549): 0.0005 µg/mL (≈ 0.000889 µM)
IC50 [8]: 0.003 µg/mL (≈ 0.00533 µM)
IC50 (KB [9]): 0.003 µg/mL (≈ 0.00533 µM)
IC50 (A-431): 0.007 µg/mL (≈ 0.0124 µM)
IC50 (1A9): 0.0008 µg/mL (≈ 0.00142 µM)
IC50 (HCT-8): 0.006 µg/mL (≈ 0.0107 µM)

COc1cc([C@@H]2c3cc4c(cc3[C@@H](O[C@@H]3O[C@@H]5CO[C@@H](C)O[C@H]5[C@H](O)[C@H]3O)[C@H]3COC(=O)[C@H]23)OCO4)cc(OC)c1O [ETOPOSIDE]
IC50 [4]: 34800 nM
IC50 [5]: 77500 nM
EC50 [5]: 25000 nM
IC50 (KB [6]): 28700 nM
IC50 (KB [7]): 600 nM
EC50 (KB [7]): 200 nM

COc1cc([C@@H]2c3cc4c(cc3[C@@H](Nc3ccc(N)cc3)[C@H]3COC(=O)[C@H]23)OCO4)cc(OC)c1O
IC50 [4]: 3500 nM
IC50 [5]: 7600 nM
IC50 (KB [6]): 2000 nM
IC50 (KB [7]): 590 nM

CC1(C)Oc2ccc3ccc(=O)oc3c2[C@@H](OC(=O)C23CCC(C)(C(=O)O2)C3(C)C)[C@H]1OC(=O)C12CCC(C)(C(=O)O1)C2(C)C (stereo not given in full)
EC50 [2]: 50 nM
selectivity ratio at 96 h [3]: > 16.1

COc1cc([C@@H]2c3cc4c(cc3[C@@H](Nc3ccc(C#N)cc3)[C@H]3COC(=O)[C@H]23)OCO4)cc(OC)c1O
IC50 [4]: 2700 nM
IC50 [5]: 5000 nM
IC50 (KB [6]): 4000 nM
IC50 (KB [7]): 610 nM

COc1cc2c(c(OC)c1OC)-c1ccc(SC)c(=O)cc1[C@@H](OC(=O)Oc1ccncc1)CC2
IC50 [12]: 560 nM

COc1cc2c(c(OC)c1OC)-c1ccc(SC)c(=O)cc1C(=O)CC2 [THIOCOLCHICONE]
IC50 [12]: 760 nM
